Measurements published in patent publication US9556229B2, “Modification of peptides using a bis(thioether)arylbridge approach” (priority 2012, dated 2017).
Where two headings read alike, the source gives them in different places. Starred links: 1 amine or outer side, 2 acyl side, 3 side chain; linkers in the order of their positions; H or OH if unused. Positions of bridges follow the written chain, without caps; N, C: chain ends. Non-standard residues stand in square brackets, D forms with d. Residues, ends and D or L forms follow the SMILES beside them. ξ: configuration not given here. *: point of attachment. DAMPA = CN(Cc1cnc2nc(N)nc(N)c2n1)c1ccc(C(=O)*)cc1; Phe(F5) = N[C@@H](Cc1c(F)c(F)c(F)c(F)c1F)C(=O)O; Pro(4R-Bn) = O=C(O)[C@@H]1C[C@@H](Cc2ccccc2)CN1; Bip = N[C@@H](Cc1ccc(-c2ccccc2)cc1)C(=O)O; X1 = O=C(Cc1ccc(CSCCCCN[*:1])cc1)[*:2]; γGlu = O=C(O)[C@H](CCC(=O)[*:2])N[*:1]; 1Nal = N[C@@H](Cc1cccc2ccccc12)C(=O)O; 2Nal = N[C@@H](Cc1ccc2ccccc2c1)C(=O)O; oXylylene = c1ccc(C[*:2])c(C[*:1])c1; Cha = N[C@@H](CC1CCCCC1)C(=O)O; Cysteamide = C(CS[*:3])N[*:1]; Chg = N[C@H](C(=O)O)C1CCCCC1; Tle = CC(C)(C)[C@H](N)C(=O)O; ξDisc = O=C(O)C1NCc2ccccc21; N(CH2CH2)2NH = C1CN(*)CCN1; β3hP = O=C(O)C[C@@H]1CCCN1; NMeA = CN[C@@H](C)C(=O)O; Inp = O=C(O)C1CCNCC1; Ahx = NCCCCCC(=O)O

Tests used:
[1] = test system: HCT116 colorectal cancer cells
[2] = test system: MCF-7 breast cancer cell line; assay: Cell viability, MCF-7, PrestoBlue assay; assay type: cell-based; conditions: NA = not active
Experimental: To test our theory we decided to focus on Smac multimers. First, we synthesized a small library of Smac compounds (see, Tables 3 and 4) varying in position 4 substituents having general structure N-MeAla-Tle-4-(trans-Bn)-Pro-Xaa-NHCH2CH2—SH (SEQ ID NO:38), which were tested in vitro using MDA-MB-231 and MCF-7 breast cancer cell lines and PrestoBlue™ assay (Invitrogen).

[3] = test system: MDA-MB-231 breast cancer cell line

SMILES | EC50 [1] [µM] | also measured
C[C@H](NC(=O)[C@H](Cc1c(F)c(F)c(F)c(F)c1F)NC(=O)[C@H](CO)NC(=O)[C@@H](N)[C@@H](C)O)C(=O)N[C@@H]1CSCc2ccccc2CSC[C@@H](C(=O)N[C@H](C)C(=O)N[C@@H](CC2CCCCC2)C(=O)N[C@@H](CO)C(=O)N2CCNCC2)NC(=O)[C@H](Cc2cccc3ccccc23)NC(=O)[C@H](Cc2ccc(O)cc2)NC1=O [ArB14Ao, Thr-Ser-PhF-Ala-Cys-Tyr-Na1-Cys-Ala-Cha-Ser-Pipz] (H-TS[Phe(F5)]A[dC]Y[1Nal]C[dA][Cha]S-{N(CH2CH2)2NH}; linker 5-8 via oXylylene; N-terminus assumed) | 83.3 | 
CC(C)C[C@H](NC(=O)[C@H]1CSCc2cccc(c2)Cc2cccc(c2)CSC[C@H](NC(=O)[C@H](C)NC(=O)[C@H](Cc2ccccc2)NC(=O)[C@H](CO)NC(=O)[C@@H](N)[C@@H](C)O)C(=O)N[C@@H](Cc2ccc(O)cc2)C(=O)N[C@@H](Cc2c[nH]c3ccccc23)C(=O)NCC(=O)N1)C(=O)N[C@@H](CO)C(=O)N1CCC[C@H]1C(N)=O [ArB15Eb] |  | EC50 ([1]; read-out: EC50 [μM] HCT-116, HCT116 colorectal cancer cells, PrestoBlue assay, NA = not active): 163 µM
CN(Cc1cnc2nc(N)nc(N)c2n1)c1ccc(C(=O)N[C@@H](CCC(=O)NCCCCCC(=O)N[C@H](CCCNC(=N)N)C(=O)N[C@@H](CCCNC(=N)N)C(=O)N[C@@H](Cc2c(F)c(F)c(F)c(F)c2F)C(=O)N[C@@H](CCCNC(=N)N)C(=O)N[C@@H]2CSCc3ccccc3CSC[C@@H](C(=O)N[C@H](CCCNC(=N)N)C(=O)N[C@@H](CC3CCCCC3)C(=O)N[C@@H](CCCNC(=N)N)C(=O)N3Cc4ccccc4C3C(N)=O)NC(=O)[C@H](Cc3cccc4ccccc34)NC(=O)[C@H](Cc3ccc(O)cc3)NC2=O)C(=O)O)cc1 (stereo partly drawn) [ArB14Co-MTX, MTX-Ahx-Arg-Arg-PhF-Arg-Cys-Tyr-Na1-Cys-Arg-Cha-Arg-DISC] ({DAMPA-γGlu-Ahx}-[dR]R[Phe(F5)]R[dC]Y[1Nal]C[dR][Cha]R[ξDisc]-NH2; linker 5-8 via oXylylene) | 6.9 ± 0.4 | 
CN[C@@H](C)C(=O)N[C@H](C(=O)N1C[C@H](Cc2ccccc2)C[C@H]1C(=O)N[C@H](C(=O)NCCS)C1CCCCC1)C(C)(C)C [SMAC6, N^MeAla-Tle-(4-Bzl)Pro-Chg-NHCH2CH2SH] (H-[NMeA][Tle][Pro(4R-Bn)][Chg]-Cysteamide; N-terminus assumed) |  | EC50 [2]: 31.2 ± 2.1 µM; EC50 [3]: 9.8 ± 3.1 µM
CN[C@@H](C)C(=O)N[C@H](C(=O)N1C[C@H](Cc2ccccc2)C[C@H]1C(=O)N[C@@H](Cc1ccc(-c2ccccc2)cc1)C(=O)NCCS)C(C)(C)C [SMAC17, N^MeAla-Tle-(4-Bzl)Pro-Bip-NHCH2CH2SH] (H-[NMeA][Tle][Pro(4R-Bn)][Bip]-Cysteamide; N-terminus assumed) |  | EC50 [2]: 5.7 ± 0.9 µM; EC50 [3]: 10.6 ± 0.9 µM

Now from value to compound, other results behind:

EC50 [1] [µM] | SMILES | also measured
49.6 | CC(C)C[C@H](NC(=O)[C@H](CCCNC(=N)N)NC(=O)[C@@H]1CSCc2ccccc2CSC[C@H](NC(=O)[C@H](Cc2ccccc2)NC(=O)[C@@H](N)CCCNC(=N)N)C(=O)N[C@@H](CCCNC(=N)N)C(=O)N[C@@H](Cc2ccc(O)cc2)C(=O)N[C@@H](Cc2c[nH]c3ccccc23)C(=O)N1)C(=O)N[C@@H](CCCNC(=N)N)C(=O)N1CCC[C@H]1C(N)=O [ArB15Fo] (H-RFCRYWCRLRP-NH2; linker 3-7 via oXylylene; N-terminus assumed) | 
10.7 ± 0.7 | N=C(N)NCCC[C@@H](N)C(=O)N[C@@H](CCCNC(=N)N)C(=O)N[C@@H](Cc1ccc2ccccc2c1)C(=O)N[C@@H](CCCNC(=N)N)C(=O)N[C@@H]1CSCc2ccccc2CSC[C@@H](C(=O)N[C@H](CCCNC(=N)N)C(=O)N[C@@H](CC2CCCCC2)C(=O)N[C@@H](CCCNC(=N)N)C(=O)N2Cc3ccccc3C2C(N)=O)NC(=O)[C@H](Cc2cccc3ccccc23)NC(=O)[C@H](Cc2ccc(O)cc2)NC1=O (stereo partly drawn) [ArB14Bo, Arg-Arg-Na2-Arg-Cys-Tyr-Na1-Cys-Arg-Cha-Arg-DISC] (H-[dR]R[2Nal]R[dC]Y[1Nal]C[dR][Cha]R[ξDisc]-NH2; linker 5-8 via oXylylene; N-terminus assumed) | 
23.4 ± 2.1 | C[C@@H]1NC(=O)[C@H](CCCNC(=N)N)NC(=O)C[C@@H]2CCCN2C(=O)Cc2ccc(cc2)CSCCCCNC(=O)C2CCN(CC2)C(=O)[C@@H](CCCCN)NC(=O)[C@H](CCCNC(=N)N)NC(=O)[C@@H](Cc2c[nH]c3ccccc23)NC(=O)[C@H](C)NC(=O)[C@H](CCCNC(=N)N)NC(=O)C[C@@H]2CCCN2C(=O)Cc2ccc(cc2)CSCCCCNC(=O)C2CCN(CC2)C(=O)[C@@H](CCCCN)NC(=O)[C@H](CCCNC(=N)N)NC(=O)[C@@H](Cc2c[nH]c3ccccc23)NC1=O [ArBMim, [-Bmpa-bhPro-Arg-Ala-Trp-Arg-Lys-Inp-CH2CH2CH2CH2-S-]2] (cyclo([Inp][X1][β3hP]RA[dW]R[dK][Inp][X1][β3hP]RA[dW]R[dK])) | 
> 250 | CC(C)C[C@H](NC(=O)[C@H]1CSCc2ccc(cc2)CSC[C@@H](NC(=O)[C@H](C)NC(=O)[C@H](Cc2ccccc2)NC(=O)[C@H](CO)NC(=O)[C@@H](N)[C@@H](C)O)C(=O)N[C@@H](Cc2ccc(O)cc2)C(=O)N[C@@H](Cc2c[nH]c3ccccc23)C(=O)NCC(=O)N1)C(=O)N[C@@H](CO)C(=O)N1CCC[C@H]1C(N)=O [ArB15Cp] | 
> 250 | CC(C)C[C@H](NC(=O)[C@H](CCCNC(=N)N)NC(=O)[C@H](CS)NC(=O)[C@H](Cc1c[nH]c2ccccc12)NC(=O)[C@H](Cc1ccc(O)cc1)NC(=O)[C@H](CCCNC(=N)N)NC(=O)[C@H](CS)NC(=O)[C@H](Cc1ccccc1)NC(=O)[C@@H](N)CCCNC(=N)N)C(=O)N[C@@H](CCCNC(=N)N)C(=O)N1CCC[C@H]1C(N)=O [ArB15F/Gr] (H-RFCRYWCRLRP-NH2; N-terminus assumed) | 
